Assay results from patent publication US8859535B2, “Hydroxy substituted isoquinolinone derivatives” (Novartis AG, priority 2011, dated 2014).

What was measured:
Format in all cases: binding
[1] = biological target: T1, human MDM2 protein (amino acids 2-188) (Homo sapiens, UniProt Q00987); test: p53-MDM2 TR-FRET assay, modified (p53-MDM2 Assay 2); conditions: 0.1 nM MDM2, 0.1 nM Europium labeled streptavidin; read-out: IC50 (nM) of p53-Hdm2 inhibition (TR-FRET) Assay 2
T1 construct: human MDM2 protein (amino acids 2-188); made in house
Description: Time Resolved Fluorescence Energy Transfer (TR-FRET) Assay
The inhibition of p53-MDM2 and p53-MDM4 interactions is measured by time resolved fluorescence energy transfer (TR-FRET). Fluorescence energy transfer (or Foerster resonance energy transfer) describes an energy transfer between donor and acceptor fluorescent molecules. For this assay, human MDM2 protein (amino acids 2-188) and human MDM4 protein (amino acids 2-185), tagged with a C-terminal biotin moiety, are used in combination with a Europium labeled streptavidin (Perkin Elmer, Inc., Waltham, Mass., USA) serving as the donor fluorophore. The p53 derived, Cy5 labeled peptide Cy5-TFSDLWKLL (p53 aa18-26) is the energy acceptor. Upon excitation of the donor molecule at 340 nm, binding interaction between MDM2 or MDM4 and the p53 peptide induces energy transfer and enhanced response at the acceptor emission wavelength at 665 nm. Disruption of the formation of the p53-MDM2 or p53-MDM4 complex due to an inhibitor molecule binding to the p53 binding site of MDM2 or MDM4 results in increased donor emission at 620 nm. The ratiometric FRET assay readout is calculated from the raw data of the two distinct fluorescence signals measured in time resolved mode (fluorescence 665 nm/fluorescence 620 nm×1000).
After addition of 1.25 nM MDM2-biotinylated or 2.5 nM MDM4-biotinylated (internal preparations), and 0.625 nM Europium labeled streptavidin (Perkin Elmer), the solution is pre-incubated for 15 minutes at room temperature, then 10 nM Cy5-p53 peptide (internal preparation) is added before an incubation at room temperature for 15 minutes prior to reading the plate. For measurement of samples, a Victor II microplate reader (Perkin Elmer) is used with the following settings: Excitation 340 nm, Emission Donor 620 nm and Emission Acceptor 665 nm. IC50 values are calculated by curve fitting using XLfit. If not specified, reagents are purchased from Sigma-Aldrich Chemie GmBH, Buchs, Switzerland.
This assay was used to evaluate compounds displaying inhibition of p53-MDM2 interaction and p53-MDM4 interaction at IC50s of 0.005 to 50 μM (p53-MDM2 Assay 1 and p53-MDM4 Assay 1, respectively). For selected compounds displaying IC50s between […] on MDM2, a slightly modified assay is used with the following adaptations: 0.1 nM MDM2, 0.1 nM Europium labeled streptavidin and Tecan genios Pro is used as a microplate reader for the fluorescence measurements (p53-MDM2 Assay 2).

[2] = biological target: T2, human MDM4 protein (amino acids 2-185) (Homo sapiens, UniProt O15151); test: p53-MDM4 TR-FRET assay (p53-MDM4 Assay 1); conditions: 2.5 nM MDM4-biotinylated, 10 nM Cy5-p53 peptide; read-out: IC50 (μM) of p53-Hdm4 inhibition (TR-FRET) Assay 1
T2 construct: human MDM4 protein (amino acids 2-185); made in house
T2 sequence (O15151 2-185): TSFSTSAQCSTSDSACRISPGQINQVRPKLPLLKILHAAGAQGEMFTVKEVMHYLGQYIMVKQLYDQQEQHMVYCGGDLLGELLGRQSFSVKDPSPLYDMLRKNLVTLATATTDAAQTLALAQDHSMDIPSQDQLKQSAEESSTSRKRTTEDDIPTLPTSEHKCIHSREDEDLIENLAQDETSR
Procedure, shortened: (§1)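 C-terminally biotinylated MDM2 (aa 2-188, 1.25 nM) or MDM4 (aa 2-185, 2.5 nM) with Eu-streptavidin (0.625 nM), 15 min preincubation, then 10 nM Cy5-p53 peptide (aa18-26), 15 min room temperature; TR-FRET 665/620 nm ratio, IC50 by curve fit. Modified MDM2 Assay 2 uses 0.1 nM MDM2 and 0.1 nM Eu-streptavidin.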

[3] = biological target: T1, human MDM2 protein (amino acids 2-188); test: p53-MDM2 TR-FRET assay (p53-MDM2 Assay 1); conditions: 1.25 nM MDM2-biotinylated, 10 nM Cy5-p53 peptide; read-out: IC50 (μM) of p53-Hdm2 inhibition (TR-FRET) Assay 1
Procedure, shortened: as §1

T1 sequence (Q00987 2-188): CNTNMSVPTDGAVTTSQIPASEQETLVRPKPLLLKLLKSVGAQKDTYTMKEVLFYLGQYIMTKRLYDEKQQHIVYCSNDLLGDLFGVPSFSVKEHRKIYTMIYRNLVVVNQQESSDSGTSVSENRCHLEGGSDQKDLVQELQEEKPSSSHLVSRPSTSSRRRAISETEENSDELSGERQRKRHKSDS

Row | IC50 [1] [nM] | IC50 [2] [µM] | IC50 [3] [µM] | Structure (SMILES)
1 | 150 | – | – | COc1cc2c(cc1OC(C)C)[C@H](c1ccc(Cl)cc1)N(c1ccc([C@](C)(O)C3CCN(C=O)CC3)cc1)C(=O)C2 (single isomer, unassigned) [Example 124]
2 | 141 | – | – | COc1cc2c(cc1OC(C)C)[C@H](c1ccc(Cl)cc1)N(c1ccc([C@](C)(O)C3CCN(C(=O)CO)CC3)cc1)C(=O)C2 (single isomer, unassigned) [Example 134]
3 | 5.13 | – | – | COc1cc2c(cc1OC(C)C)[C@H](c1ccc(Cl)cc1)N(c1ccc(C(C)(O)[C@H]3CCCN(C)C3)cc1)C(=O)C2 (stereo partly drawn) [Example 181, (S)-1-(4-Chloro-phenyl)-2-{4-[1-hydroxy-1-((S)-1-methyl-piperidin-3-yl)-ethyl]-phenyl}-7-isopropoxy-6-methoxy-1,4-dihydro-2H-isoquinolin-3-one]
4 | – | 18 | 0.0179 | COc1cc2c(cc1OC(C)C)[C@H](c1ccc(Cl)cc1)N(c1ccc(C(C)(O)C3CN(CC(F)(F)F)C3)cc1)C(=O)C2 (stereo partly drawn) [Example 74, (S)-1-(4-Chloro-phenyl)-2-(4-{1-hydroxy-1-[1-(2,2,2-trifluoro-ethyl)-azetidin-3-yl]-ethyl}-phenyl)-7-isopropoxy-6-methoxy-1,4-dihydro-2H-isoquinolin-3-one]
5 | – | 90.2 | 0.246 | COc1cc2c(cc1OC(C)C)[C@H](c1ccc(Cl)cc1)N(c1ccc(C3(O)CCCC3)cc1)C(=O)C2 [Example 50, (S)-1-(4-Chloro-phenyl)-2-[4-(1-hydroxy-cyclopentyl)-phenyl]-7-isopropoxy-6-methoxy-1,4-dihydro-2H-isoquinolin-3-one]
6 | – | 13.2 | 0.0054 | COc1cc2c(cc1OC(C)C)[C@H](c1ccc(Cl)cc1)N(c1ccc([C@@](C)(O)C34CC5CC(CC(C5)C3)C4)cc1)C(=O)C2 (single isomer, unassigned) [Example 142]
7 | – | 7.54 | 0.0062 | COc1cc2c(cc1OC(C)C)[C@H](c1ccc(Cl)cc1)N(c1ccc(C(C)(O)C34CCC(CC3)C4)cc1)C(=O)C2 (stereo partly drawn) [Example 138, (S)-2-[4-(1-Bicyclo[2.2.1]hept-1-yl-1-hydroxy-ethyl)-phenyl]-1-(4-chloro-phenyl)-7-isopropoxy-6-methoxy-1,4-dihydro-2H-isoquinolin-3-one]
8 | – | 41.2 | 0.0423 | COc1cc2c(cc1OC(C)C)[C@H](c1ccc(Cl)cc1)N(c1ccc(C(C)(O)C3CNC3)cc1)C(=O)C2 (stereo partly drawn) [Example 65, (S)-2-[4-(1-Azetidin-3-yl-1-hydroxy-ethyl)-phenyl]-1-(4-chloro-phenyl)-7-isopropoxy-6-methoxy-1,4-dihydro-2H-isoquinolin-3-one]
9 | – | 45.3 | 0.0731 | COc1cc2c(cc1OC(C)C)[C@H](c1ccc(Cl)cc1)N(c1ccc(C3(O)CCC3)cc1)C(=O)C2 [Example 51, (S)-1-(4-Chloro-phenyl)-2-[4-(1-hydroxy-cyclobutyl)-phenyl]-7-isopropoxy-6-methoxy-1,4-dihydro-2H-isoquinolin-3-one]
10 | – | 14.2 | 0.0132 | COc1cc2c(cc1OC(C)C)[C@H](c1ccc(Cl)cc1)N(c1ccc(C(C)(O)C3CC4CCC(C3)N4C(C)=O)cc1)C(=O)C2 (stereo partly drawn) [Example 104, (S)-2-{4-[1-(8-Acetyl-8-aza-bicyclo[3.2.1]oct-3-yl)-1-hydroxy-ethyl]-phenyl}-1-(4-chloro-phenyl)-7-isopropoxy-6-methoxy-1,4-dihydro-2H-isoquinolin-3-one]
11 | – | 88.4 | 0.186 | CNC(=O)N1CC(O)(c2ccc(N3C(=O)Cc4cc(OC)c(OC(C)C)cc4[C@@H]3c3ccc(Cl)cc3)cc2)C1 [Example 60, 3-{4-[(S)-1-(4-Chloro-phenyl)-7-isopropoxy-6-methoxy-3-oxo-3,4-dihydro-1H-isoquinolin-2-yl]-phenyl}-3-hydroxy-azetidine-1-carboxylic acid methylamide]
12 | – | 5.53 | 0.0101 | CC(C)Oc1cc2c(cc1OCC(=O)N(C)C)CC(=O)N(c1ccc(C(C)(O)C3CCOCC3)cc1)[C@H]2c1ccc(Cl)cc1 (stereo partly drawn) [Example 149, 2-((S)-1-(4-Chloro-phenyl)-2-{4-[1-hydroxy-1-(tetrahydro-pyran-4-yl)-ethyl]-phenyl}-7-isopropoxy-3-oxo-1,2,3,4-tetrahydro-isoquinolin-6-yloxy)-N,N-dimethyl-acetamide]
13 | – | 2.96 | 0.0025 | COc1cc2c(cc1OC(C)C)[C@H](c1ccc(Cl)cc1)N(c1ccc([C@@](C)(O)C34CCC(CC3)O4)cc1)C(=O)C2 (single isomer, unassigned) [Example 136]
14 | – | 3 | 0.0083 | COCCOc1cc2c(cc1OC(C)C)[C@H](c1ccc(Cl)cc1)N(c1ccc(C(C)(O)C3CCOCC3)cc1)C(=O)C2 (stereo partly drawn) [Example 145, (S)-1-(4-Chloro-phenyl)-2-{4-[1-hydroxy-1-(tetrahydro-pyran-4-yl)-ethyl]-phenyl}-7-isopropoxy-6-(2-methoxy-ethoxy)-1,4-dihydro-2H-isoquinolin-3-one]
15 | – | 19.5 | 0.0112 | COc1cc2c(cc1OC(C)C)[C@H](c1ccc(Cl)cc1)N(c1ccc(C(C)(O)c3ccc(NC(C)=O)cc3)cn1)C(=O)C2 (stereo partly drawn) [Example 25, N-[4-(1-{6-[(S)-1-(4-Chloro-phenyl)-7-isopropoxy-6-methoxy-3-oxo-3,4-dihydro-1H-isoquinolin-2-yl]-pyridin-3-yl}-1-hydroxy-ethyl)-phenyl]-acetamide]
16 | – | 13.8 | 0.0117 | COc1cc2c(cc1OC(C)C)[C@H](c1ccc(Cl)cc1)N(c1ccc(C(C)(O)C3CCOCC3)cn1)C(=O)C2 (stereo partly drawn) [Example 37, (S)-1-(4-Chloro-phenyl)-2-{5-[1-hydroxy-1-(tetrahydro-pyran-4-yl)-ethyl]-pyridin-2-yl}-7-isopropoxy-6-methoxy-1,4-dihydro-2H-isoquinolin-3-one]
17 | – | 10.6 | 0.0072 | COc1cc2c(cc1OC(C)C)[C@H](c1ccc(Cl)cc1)N(c1ccc(C(C)(O)C3CN(C(=O)OC(C)(C)C)C3)cc1)C(=O)C2 (stereo partly drawn) [Example 64, 3-(1-{4-[(S)-1-(4-Chloro-phenyl)-7-isopropoxy-6-methoxy-3-oxo-3,4-dihydro-1H-isoquinolin-2-yl]-phenyl}-1-hydroxy-ethyl)-azetidine-1-carboxylic acid tert-butyl ester]
18 | – | 9.21 | 0.0085 | COc1cc2c(cc1OC(C)C)[C@H](c1ccc(Cl)cc1)N(c1ccc(C(C)(O)C3CN(C4CCN(C)CC4)C3)cc1)C(=O)C2 (stereo partly drawn) [Example 101, (S)-1-(4-Chloro-phenyl)-2-(4-{1-hydroxy-1-[1-(1-methyl-piperidin-4-yl)-azetidin-3-yl]-ethyl}-phenyl)-7-isopropoxy-6-methoxy-1,4-dihydro-2H-isoquinolin-3-one]
19 | – | 67.8 | 0.216 | COc1cc2c(cc1OC(C)C)[C@H](c1ccc(Cl)cc1)N(c1ccc([C@](C)(O)C3CCOCC3)cc1)C(=O)C2 (single isomer, unassigned) [Example 33]
20 | – | 5.11 | 0.0057 | COc1cc2c(cc1OC(C)C)[C@H](c1ccc(Cl)cc1)N(c1ccc(C(C)(O)C3CCN(S(C)(=O)=O)CC3)cc1)C(=O)C2 (stereo partly drawn) [Example 81, (S)-1-(4-Chloro-phenyl)-2-{4-[1-hydroxy-1-(1-methanesulfonyl-piperidin-4-yl)-ethyl]-phenyl}-7-isopropoxy-6-methoxy-1,4-dihydro-2H-isoquinolin-3-one]
